The results in this text go back to patent US9023987B2, “Cell-permeable peptide” (Seoul National University R&DB Foundation, priority 2010, dated 2015).

In experiment [1] the target is T1, human-derived Smurf1 protein (Homo sapiens, UniProt Q9HCE7).
T1 construct: purchased Origene Technologies (Rockville, Md., USA)
The experiment can be described thus: Slot-blot assay of binding to Smurf1. The source says: In order to confirm presence or absence of the active site of the cell permeable peptide-bone differentiation inducing sequence conjugate synthesized by the method in Example 1 for binding to Smurf1 and binding degrees according to the concentration, a slot blot assay were used. This experimental method is a molecular biological method of positioning a protein on a membrane and sucking the protein in the other side to strongly attach the protein on a surface of the membrane, directly positioning a material to be confirm an interaction with the attached protein and culturing for a predetermine time to induce the binding, and blotting them using antibodies to confirm the interaction (affinity) between the protein and the material through a difference of each Dot.
1 μg of human-derived Smurf1 protein was input […] per well using a slot blot device (Hoefer, Pharmacia Biotech, USA) and blotted on a predetermined position on a nitrocellulose membrane (2 μm, Pall, USA) in a vacuum state. After blotting, the nitrocellulose membrane was blocked with phosphate buffer solution containing 0.5% Tween® 20 at room temperature for 30 minutes, and then completely dried. […]

The subject of experiment [2] is human mesenchymal stem cells (hMSC). The experiment can be described thus: Cell differentiation ability by Alizarin red S staining. The class given is cell-based. The conditions noted are these: 10 mM, hard tissue-forming medium, 14 days, compared with PBS; FIG. 4A a-c. As to the method: In order to confirm cell differentiation ability of the cell permeable peptide-bone differentiation inducing sequence conjugate by the amount of phosphorylated calcium, human mesenchymal stem cells (hMSC) were seeded in a 24-well plate at 1×10^3/well, and then treated with the cell permeable peptide-bone differentiation inducing sequence conjugate synthesized from Example 1 and the bone differentiation inducing sequence of Comparative Example 2 of […] for each, and then incubated in a hard tissue-forming medium for 14 days. The hard tissue-forming medium contained an MSCBM medium containing 15% FBS (fetal bovine serum), […] of L-ascorbic acid, 10^−7 M dexamethasone, 1% antibiotic-antimycotic solution, and 10 mM beta-glycerol phosphate. After completion of the incubation, the medium was removed, and then the cells were washed with phosphate buffer solution (PBS) twice. The cells were fixed using 90% ethanol at 4° C. for 15 minutes, followed by washing with distilled water twice, and then stained with 2% Alizarin red S Solution (pH 4.2; Alizarin red S powder, Junsei, JAPAN).

Experiment [3] concerns Smad1/5/8 phosphorylation, RUNX2. The experiment can be described thus: Western blot of signal transduction proteins in cytoplasmic and nuclear fractions. The class given is cell-based, human. The conditions noted are these: 10 μm, 1.5 hours, hMSC, compared with PBS; FIG. 4D. As to the method:
In order to confirm cell differentiation ability of the cell permeable peptide-bone differentiation inducing sequence conjugate, using proteins serving an important role in signal transduction pathways in the cytoplasmic fraction and the nuclear fraction, human mesenchymal stem cells (hMSC) were seeded in each well of a 10 cm-dish at 1×10^6/well, and then incubated in a general medium for 20 hours (overnight) for cell stabilization. After 20 hours of the incubation, the cells were treated with the cell permeable peptide-bone differentiation inducing sequence conjugate and the bone differentiation inducing sequence of Comparative Example 2 of 10 μm for each for 1.5 hours.
After that, in order to compare the expression degree of intercellular protein, in each of the cells treated with the cell permeable peptide-bone differentiation inducing sequence conjugate of Example 1 and the bone differentiation inducing sequence of Comparative Example 2, cytoplasm and nucleus were separated using NE-PER nuclear and cytoplasmic extraction reagents according to the manufacturer's instructions (Pierce, USA). The protein in the hMSC lysis solution containing the separated cytoplasm and nucleus was determined by Bradford's assay, and then subjected to electrophoresis using 10% polyacrylamide gel at 120 volts for 4 hours. […]
Background: In western blotting, separated proteins are transferred to a membrane and probed.

T1 sequence (Q9HCE7 whole entry): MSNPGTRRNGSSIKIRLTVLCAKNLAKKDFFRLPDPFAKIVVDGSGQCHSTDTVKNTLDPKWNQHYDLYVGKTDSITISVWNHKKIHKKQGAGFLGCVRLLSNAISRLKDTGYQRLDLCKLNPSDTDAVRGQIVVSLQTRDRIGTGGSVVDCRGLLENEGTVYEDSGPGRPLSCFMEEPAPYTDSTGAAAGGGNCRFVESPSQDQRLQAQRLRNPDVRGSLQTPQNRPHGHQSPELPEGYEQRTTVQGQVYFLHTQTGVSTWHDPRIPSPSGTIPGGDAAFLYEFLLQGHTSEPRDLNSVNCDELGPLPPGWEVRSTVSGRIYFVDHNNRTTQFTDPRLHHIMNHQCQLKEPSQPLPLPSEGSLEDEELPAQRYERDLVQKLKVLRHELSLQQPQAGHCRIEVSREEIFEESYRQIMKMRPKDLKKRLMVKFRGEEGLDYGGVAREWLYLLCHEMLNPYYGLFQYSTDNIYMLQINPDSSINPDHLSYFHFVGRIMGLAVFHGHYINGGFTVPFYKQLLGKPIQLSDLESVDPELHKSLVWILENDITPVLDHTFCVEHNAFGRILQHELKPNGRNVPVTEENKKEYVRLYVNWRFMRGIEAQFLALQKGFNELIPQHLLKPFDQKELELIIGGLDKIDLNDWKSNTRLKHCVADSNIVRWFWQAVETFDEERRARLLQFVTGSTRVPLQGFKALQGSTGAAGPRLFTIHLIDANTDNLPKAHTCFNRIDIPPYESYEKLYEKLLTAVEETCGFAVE

As to “NH2-GAPPPADSAP-SSRKKNPNCRRH-C-COONH2 (H-GAPPPADSAPSSRKKNPNCRRHC-NH2; cysteine pairing not given here) [Example 1]”, the “concentration at which an increase of dot size began” value in experiment [1] (0.1, 1, 10, and 100 mM, 4° C., 20 hours, FIG. 2D) is 10 mM. Moreover, the “binding to Smurf1 protein detected as dot” value in experiment [1] (biotinylated domains, slot blot, FIG. 2C) is recorded as “a dot was confirmed”. For the same substance, the “differentiation into osteoblast, Alizarin red S staining of phosphorylated calcium” value in experiment [2] is “relatively strong staining degree of phosphorylated calcium”. In addition, in experiment [3], the “RUNX2 in the nucleus (western blot)” value is reported as “noticeably increased RUNX2” and the “phosphorylation of Smad1/5/8 (western blot)” value is listed as “exhibited Smad 1/5/8 phosphorylation”.
